In ChEMBL document CHEMBL1201862, “PubChem BioAssay data set” (2004):
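Method: 48-hour compound exposure of cells in 96-well plates, five concentrations, linear interpolation of endpoints. Here, GI50 denotes the concentration required for 50% inhibition of growth.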 Active and inactive are the calls of the source. Rule as the data show it: active = GI50 up to about 1.1 µM and inactive = higher.

Experiments:
Assay in all cases: growth of human tumour cells (NCI), 48 h
[1] = system: HCT-15
[2] = system: HOP-92
[3] = system: UACC-62
[4] = system: NCI-H522
[5] = system: IGROV-1
[6] = system: KM12
[7] = system: 786-0
[8] = system: CCRF-CEM
[9] = system: Hs-578T
[10] = system: OVCAR-5
[11] = system: A498
[12] = system: HCC 2998
[13] = system: ACHN
[14] = system: OVCAR-3
[15] = system: CAKI-1
[16] = system: HL-60
[17] = system: SN12C
[18] = system: SK-MEL-2
[19] = system: Malme-3M
[20] = system: U-251
[21] = system: RXF 393
[22] = system: EKVX
[23] = system: COLO 205
[24] = system: A549
[25] = system: OVCAR-4
[26] = system: SK-MEL-5
[27] = system: MDA-MB-231
[28] = system: SF-539
[29] = system: SW-620
[30] = system: TK-10
[31] = system: M14
[32] = system: PC-3
[33] = system: UACC-257
[34] = system: NCI-H460
[35] = system: LOX IMVI
[36] = system: BT-549
[37] = system: SR
[38] = system: DU-145
[39] = system: SF-268
[40] = system: SF-295
[41] = system: MCF7
[42] = system: SNB-19
[43] = system: NCI/ADR-RES
[44] = system: NCI-H226
[45] = system: OVCAR-8
[46] = system: UO-31
[47] = system: MDA-N
[48] = system: MDA-MB-435
[49] = system: MOLT-4
[50] = system: SK-MEL-28
[51] = system: SNB-75
[52] = system: K562
[53] = system: RPMI-8226

CC(=O)Nc1ccc2nc(-c3ccccn3)c(-c3ccccn3)nc2c1
GI50 [1]: > 100 µM | GI50 [2]: > 100 µM (inactive) | GI50 [3]: > 100 µM (inactive) | GI50 [4]: > 100 µM (inactive) | GI50 [5]: > 100 µM (inactive) | GI50 [6]: > 100 µM (inactive) | GI50 [7]: > 100 µM (inactive) | GI50 [8]: > 100 µM (inactive) | GI50 [9]: > 100 µM (inactive) | GI50 [10]: > 100 µM (inactive) | GI50 [11]: > 100 µM (inactive) | GI50 [12]: > 100 µM (inactive) | GI50 [13]: > 100 µM (inactive) | GI50 [14]: > 100 µM (inactive) | GI50 [15]: > 100 µM (inactive) | GI50 [16]: > 100 µM (inactive) | GI50 [17]: > 100 µM (inactive) | GI50 [18]: > 100 µM (inactive) | GI50 [19]: > 100 µM (inactive) | GI50 [20]: > 100 µM (inactive) | GI50 [21]: 89.7 µM (inactive) | GI50 [22]: > 100 µM (inactive) | GI50 [23]: > 100 µM (inactive) | GI50 [24]: > 100 µM (inactive) | GI50 [25]: > 100 µM (inactive) | GI50 [26]: > 100 µM (inactive) | GI50 [27]: > 100 µM (inactive) | GI50 [28]: > 100 µM (inactive) | GI50 [29]: > 100 µM (inactive) | GI50 [30]: > 100 µM (inactive) | GI50 [31]: > 100 µM (inactive) | GI50 [32]: > 100 µM (inactive) | GI50 [33]: > 100 µM (inactive) | GI50 [34]: > 100 µM (inactive) | GI50 [35]: > 100 µM (inactive) | GI50 [36]: > 100 µM (inactive) | GI50 [37]: > 100 µM (inactive) | GI50 [38]: > 100 µM (inactive) | GI50 [39]: > 100 µM (inactive) | GI50 [40]: > 100 µM (inactive) | GI50 [41]: > 100 µM (inactive) | GI50 [42]: > 100 µM (inactive) | GI50 [43]: > 100 µM (inactive) | GI50 [44]: > 100 µM (inactive) | GI50 [45]: > 100 µM (inactive) | GI50 [46]: > 100 µM (inactive) | GI50 [47]: > 100 µM (inactive) | GI50 [48]: > 100 µM (inactive) | GI50 [49]: > 100 µM (inactive) | GI50 [50]: > 100 µM (inactive) | GI50 [51]: > 100 µM (inactive) | GI50 [52]: > 100 µM (inactive) | GI50 [53]: > 100 µM (inactive)
